“Also recorded” adds a separate entry of the source.
Assays:
U87MG cells [1] = assay: Ang2 dependent adhesion of U87MG cells to Ang2-coated wells (CellTiter-Glo luminescence); format: cell-based, human; details: for Ang2 dependent cell adhesion inhibition activity: Example 5.2, peptide 100 μg/ml, among the 41 peptides; for inhibition activity against the binding of Ang2 and integrin: FIG. 10, U87MG adhesion to Ang2-coated wells, each peptide 100 μg/ml
Experimental: A 96-well plate was treated with 100 μl of a solution obtained by diluting Ang2 (R&D systems; 623-AN-025/CF) in a phosphate buffered saline (PBS) at a concentration of 10 μg/ml and incubated at 4° C. for 16 hours so that the wells were coated with Ang2. Thereafter, the Ang2-coated 96 wells were washed twice with PBS, treated with 200 μl of PBS containing 2% (v/v) bovine serum albumin (BSA) and then incubated at a room temperature for 2 hours for blocking. For a negative control, wells that were blocked without Ang2 coating (i.e., treated with BSA only) were prepared.
150 μl of the thus obtained cell suspension was added to each well of the 96-well plate that was prepared by performing coating and blocking procedures and incubating the plate in a CO2 incubator at 37° C. for 2 hours to induce cell adhesion.
Then, the plate was washed 4 times with serum-free media that was warmed to 37° C. to remove cells that were not adhered. The adhesion level of cells was quantified by adding 200 μl of CellTiter-Glo reagent (Promega) diluted in IMDM at 1:1 and then, measuring luminescence at EnVision® Multilabel Reader (PerkinElmer) after 10 min.
When Ang2-coated plates were treated with U87MG cells in accordance with the same methods as in Example 1.1, they were co-treated with one of the 41 peptides derived from Ang2 set forth in Table 2 to investigate the inhibition effects of the peptides against the adhesion of U87MG cells (see FIG. 8). Each peptide was treated at a concentration of 100 μg/ml and the number of U87MG cells treated with each peptide was about 4×10^4. The measurement of cell adhesion level was carried out in the same manner as Example 1.1. That is, after the addition of 200 μl of CellTiter-Glo reagent (Promega) diluted in IMDM at 1:1, their luminescence was measured at EnVision® Multilabel Reader (PerkinElmer) after 10 min.
When Ang2-coated plates were treated with U87MG cells in accordance with the same methods as in Example 1.1, they were co-treated with the C-body produced in Example 8 to investigate inhibition effects of C-body treatment on the adhesion of U87MG cells. The C-body was treated at a concentration of 20 μg/ml or 5 μg/ml, and the number of U87MG cells used was about 4×10^4 at each concentration.

integrin (αVβ3) = biological target: T1, integrin (αVβ3) (Homo sapiens, UniProt P05106+P06756); assay: ELISA: binding of Ang2 protein (wild type or Q362A) to coated integrin; details: 5 μg/ml protein, FIG. 11
T1 construct: purchased R&D systems
T1 sequence (P06756 31-889 limits assumed): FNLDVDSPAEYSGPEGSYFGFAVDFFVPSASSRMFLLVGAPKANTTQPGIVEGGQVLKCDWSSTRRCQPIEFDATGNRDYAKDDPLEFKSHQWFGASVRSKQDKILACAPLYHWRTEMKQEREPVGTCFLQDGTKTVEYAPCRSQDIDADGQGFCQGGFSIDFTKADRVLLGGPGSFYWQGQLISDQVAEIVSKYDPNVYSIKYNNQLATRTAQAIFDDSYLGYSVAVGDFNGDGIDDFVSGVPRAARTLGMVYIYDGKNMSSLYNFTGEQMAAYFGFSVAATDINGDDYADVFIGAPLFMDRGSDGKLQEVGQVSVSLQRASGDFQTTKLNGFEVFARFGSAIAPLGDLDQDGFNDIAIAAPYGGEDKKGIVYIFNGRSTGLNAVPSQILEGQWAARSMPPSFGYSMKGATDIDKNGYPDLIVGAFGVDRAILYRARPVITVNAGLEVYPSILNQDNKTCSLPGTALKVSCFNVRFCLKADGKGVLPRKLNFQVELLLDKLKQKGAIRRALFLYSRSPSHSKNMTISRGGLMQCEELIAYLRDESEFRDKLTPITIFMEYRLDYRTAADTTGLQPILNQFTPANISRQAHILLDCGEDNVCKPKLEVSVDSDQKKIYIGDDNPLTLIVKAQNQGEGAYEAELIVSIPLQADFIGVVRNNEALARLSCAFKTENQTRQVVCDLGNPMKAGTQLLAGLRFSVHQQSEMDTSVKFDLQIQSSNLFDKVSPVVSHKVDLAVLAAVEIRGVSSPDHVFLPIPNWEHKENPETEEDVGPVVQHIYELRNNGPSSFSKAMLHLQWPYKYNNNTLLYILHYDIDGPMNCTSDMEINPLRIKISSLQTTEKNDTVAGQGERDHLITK
T1 sequence (P06756 891-992 partner limits assumed): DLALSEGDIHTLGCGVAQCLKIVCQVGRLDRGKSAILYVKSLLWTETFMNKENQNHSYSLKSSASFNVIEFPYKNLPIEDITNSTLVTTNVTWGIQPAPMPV
T1 sequence (P05106 27-718 limits assumed): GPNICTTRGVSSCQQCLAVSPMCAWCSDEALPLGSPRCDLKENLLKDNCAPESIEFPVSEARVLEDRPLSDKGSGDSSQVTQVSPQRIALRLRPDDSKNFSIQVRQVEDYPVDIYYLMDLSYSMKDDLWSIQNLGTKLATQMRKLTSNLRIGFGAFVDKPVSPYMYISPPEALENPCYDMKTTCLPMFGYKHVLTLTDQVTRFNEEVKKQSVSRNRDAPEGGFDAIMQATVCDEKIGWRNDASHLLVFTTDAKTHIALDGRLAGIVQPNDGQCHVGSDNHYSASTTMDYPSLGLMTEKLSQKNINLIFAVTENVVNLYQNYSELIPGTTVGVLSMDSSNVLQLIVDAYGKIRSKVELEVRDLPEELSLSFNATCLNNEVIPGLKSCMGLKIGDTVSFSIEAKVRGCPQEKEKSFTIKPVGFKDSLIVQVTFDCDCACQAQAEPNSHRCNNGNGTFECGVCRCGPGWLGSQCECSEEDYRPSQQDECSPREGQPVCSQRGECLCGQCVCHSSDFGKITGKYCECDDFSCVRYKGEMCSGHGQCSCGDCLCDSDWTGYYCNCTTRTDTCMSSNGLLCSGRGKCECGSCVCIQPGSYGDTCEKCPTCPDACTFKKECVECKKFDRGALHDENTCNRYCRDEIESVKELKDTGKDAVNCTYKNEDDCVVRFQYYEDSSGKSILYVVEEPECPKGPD
Experimental: After an ELISA plate was coated with diluents obtained by diluting 3 kinds of integrin proteins (alpha5beta1 (α5β1; α5: NCBI Accession No. P08648, β1: NCBI Accession No. P05556), alphaVbeta1 (αVβ1; αV: NCBI Accession No. P06756, β1: NCBI Accession No. P05556), and alphaVbeta3 (αVβ3; αV: NCBI Accession No. P06756, β3: NCBI Accession No. P05106); R&D systems)) in PBS at a concentration of 5 μg/ml (18 hours, 4° C.), it was blocked with 1% (v/v) BSA at a room temperature for 2 hours. Thereafter, it was treated with Ang2 protein having FLAG sequences (DYKDDDDK, Sigma) tagged at its N-terminal (FLAG-Ang2, 0.1 ml of Ang2 protein solution diluted in PBS at a concentration of 10 μg/ml), incubated at a room temperature for 2 hours, and washed 5 times with PBS-t (0.1% (v/v) triton X-100 in PBS). Then, it was followed by the addition of anti-FLAG antibody (Sigma) conjugated with horse radish peroxidase (HRP) and washed 5 times with PBS-t. Binding between Ang2 and 3 kinds of the integrins was verified indirectly by measuring the quantity of anti-FLAG antibody remaining in the ELISA plate through color development reaction using TMB (3,3,5,5-tetramethylbenzidine) as a substrate of HRP. As a negative control, one plate which was blocked without Ang2 protein treatment (BSA treatment only) was used. […]

Tie2 proteins (Q02763) = biological target: T2, Tie2 proteins (Q02763) (Homo sapiens, UniProt Q02763); assay: ELISA: binding of Ang2 protein (wild type or Q362A) to coated Tie2; details: Tie2 coated ELISA plates; FIG. 12
T2 construct: purchased R&D systems
T2 sequence (Q02763 23-1124): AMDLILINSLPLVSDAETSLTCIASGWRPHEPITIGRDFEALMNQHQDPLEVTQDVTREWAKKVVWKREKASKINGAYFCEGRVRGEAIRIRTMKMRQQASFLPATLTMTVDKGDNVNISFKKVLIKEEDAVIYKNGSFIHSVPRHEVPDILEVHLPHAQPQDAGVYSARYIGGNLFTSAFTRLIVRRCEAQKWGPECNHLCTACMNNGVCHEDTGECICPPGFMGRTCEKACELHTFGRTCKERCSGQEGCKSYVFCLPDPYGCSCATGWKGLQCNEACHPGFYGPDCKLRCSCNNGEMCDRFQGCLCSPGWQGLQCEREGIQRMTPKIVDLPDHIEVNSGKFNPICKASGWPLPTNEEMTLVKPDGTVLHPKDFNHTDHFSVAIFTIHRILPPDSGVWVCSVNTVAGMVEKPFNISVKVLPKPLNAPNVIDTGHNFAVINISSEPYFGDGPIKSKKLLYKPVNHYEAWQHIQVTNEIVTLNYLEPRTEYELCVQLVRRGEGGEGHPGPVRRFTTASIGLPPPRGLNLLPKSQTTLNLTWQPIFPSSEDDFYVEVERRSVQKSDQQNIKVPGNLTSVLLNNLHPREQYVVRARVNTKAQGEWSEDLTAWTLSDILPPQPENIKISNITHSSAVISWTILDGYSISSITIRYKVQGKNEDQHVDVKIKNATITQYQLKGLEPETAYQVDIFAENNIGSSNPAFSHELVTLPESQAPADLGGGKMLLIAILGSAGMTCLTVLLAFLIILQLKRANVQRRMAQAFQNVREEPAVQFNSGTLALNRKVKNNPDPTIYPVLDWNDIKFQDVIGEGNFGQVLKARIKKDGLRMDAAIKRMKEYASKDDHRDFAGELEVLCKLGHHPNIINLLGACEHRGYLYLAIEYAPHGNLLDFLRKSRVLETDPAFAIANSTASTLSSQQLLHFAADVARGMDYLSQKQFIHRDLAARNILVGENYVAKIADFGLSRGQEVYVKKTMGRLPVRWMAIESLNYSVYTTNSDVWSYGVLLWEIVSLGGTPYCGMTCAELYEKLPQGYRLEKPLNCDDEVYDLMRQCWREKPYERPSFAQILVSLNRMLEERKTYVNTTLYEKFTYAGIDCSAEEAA
From the text: The Y axis represents binding levels of each Ang2 protein to coated Tie2 or negative control BSA.

U87MG cells [2] = assay: U87MG cancer cell invasion in matrigel-coated transwell chamber; format: cell-based, human; details: 5 μg/ml in lower chamber, 48 hours; FIG. 14
Experimental: U87MG cells which underwent serum starvation for two days were detached using a cell dissociation solution (EDTA solution) and diluted in 0% serum IMDM media, and then 7.5×10^4 of the cells were each treated in an upper chamber of a matrigel-coated transwell chamber (24 wells, BD bioscience). Lower chambers were filled with a diluent obtained by diluting wild type Ang2 protein or its Q362A modified form (see Example 6) in 2% serum IMDM media at a concentration of 5 μg/ml. After 48 hours passed, the cells were dyed using calcein-AM solution (4 μg/ml; BD Biosciences) and observed using a fluorescence microscope to measure the number of the cells which invaded toward the bottom.
The left part of FIG. 14 indicates the number of the cells that migrated to the lower chambers, and the right part illustrates the observation results of fluorescence treatment of the cells which migrated to the lower chambers, using a fluorescence microscope. In FIG. 14, ‘−’ indicates a negative control where the lower chamber was not treated with Ang2 protein or its modified form.

EYWLG NEFVS QLTNQ (EYWLGNEFVSQLTNQ; Synthetic Peptide 15) [SEQ ID No. 15, 15 consecutive amino acids (352 to 366) of the Ang2 protein]
Ang2 dependent cell adhesion inhibition activity (U87MG cells [1]; listed as 15): best Ang2 dependent cell adhesion inhibition activity | Ang2 dependent cell adhesion inhibition activity (U87MG cells [1]; listed as Peptide 15): excellent Ang2-dependent cell adhesion inhibition activity | inhibition activity against the binding of Ang2 and integrin (U87MG cells [1]): remarkably high inhibition activity

HTTNG IYTLT FPNST (HTTNGIYTLTFPNST; Synthetic Peptide 3) [SEQ ID No. 3]
inhibition activity against the binding of Ang2 and integrin (U87MG cells [1]): remarkably high inhibition activity; also recorded: excellent integrin-Ang2 binding inhibition activity

IYTLT FPNST EEIKA (IYTLTFPNSTEEIKA; Synthetic Peptide 4) [SEQ ID No. 4]
inhibition activity against the binding of Ang2 and integrin (U87MG cells [1]): remarkably high inhibition activity; also recorded: excellent integrin-Ang2 binding inhibition activity

LNYRI HLKGL TGTAG (LNYRIHLKGLTGTAG; Synthetic Peptide 24) [SEQ ID No. 24]
inhibition activity against the binding of Ang2 and integrin (U87MG cells [1]): remarkably high inhibition activity

NEFVS QLTNQ QRYVL (NEFVSQLTNQQRYVL; Synthetic Peptide 16) [SEQ ID No. 16]
inhibition activity against the binding of Ang2 and integrin (U87MG cells [1]): remarkably high inhibition activity

QLTNQ QRYVL KIHLK (QLTNQQRYVLKIHLK; Synthetic Peptide 17) [SEQ ID No. 17]
inhibition activity against the binding of Ang2 and integrin (U87MG cells [1]): remarkably high inhibition activity

WKGSG YSLKA TTMMI (WKGSGYSLKATTMMI; Synthetic Peptide 40) [SEQ ID No. 40]
inhibition activity against the binding of Ang2 and integrin (U87MG cells [1]): remarkably high inhibition activity

B1: Q362A: FLAG-Ang2 protein modified form where glutamine at amino acid 362 (SEQ ID No. 42) is substituted by alanine (protein)
chain: MWQIVFFTLSCDLVLAAAYNNFRKSMDSIGKKQYQVQHGSCSYTFLLPEMDNCRSSSSPYVSNAVQRDAPLEYDDSVQRLQVLENIMENNTQWLMKLENYIQDNMKKEMVEIQQNAVQNQTAVMIEIGTNLLNQTAEQTRKLTDVEAQVLNQTTRLELQLLEHSLSTNKLEKQILDQTSEINKLQDKNSFLEKKVLAMEDKHIIQLQSIKEEKDQLQVLVSKQNSIIEELEKKIVTATVNNSVLQKQQHDLMETVNNLLTMMSTSNSAKDPTVAKEEQISFRDCAEVFKSGHTTNGIYTLTFPNSTEEIKAYCDMEAGGGGWTIIQRREDGSVDFQRTWKEYKVGFGNPSGEYWLGNEFVSALTNQQRYVLKIHLKDWEGNEAYSLYEHFYLSSEELNYRIHLKGLTGTAGKISSISQPGNDFSTKDGDNDKCICKCSQMLTGGWWFDACGPSNLNGMYYPQRQNTNKFNGIKWYYWKGSGYSLKATTMMIRPADF
modifications: FLAG tag; Human Ang2 protein
binding level to integrin relative to wild type Ang2 (integrin (αVβ3)): ≤ 50% | inhibition of Ang2-integrin binding by Q362A modification (integrin (αVβ3)): ≥ 50% | binding level to Tie2 compared with wild type Ang2 (Tie2 proteins (Q02763)): did not show any significant differences | induction level of cancer cell invasion compared with wild type Ang2 protein (U87MG cells [2]): remarkably low induction level of cancer cell invasion (approximately half or so)
